# Patent publication US20100029604A1, “ANTIBACTERIAL COMBINATION AND ITS USE” (priority 2007, published 2010)
# What was measured:
# Assay in all cases: MIC, characterised β-lactamase producing strain (Example 5, Table 7)
# Format in all cases: cell-based
# [1] = tested on: Klebsiella pneumoniae CTX-M14; conditions: CTXM14, combination at constant concentration ratio (2:1)
# Text: (§1) Their MICs were compared with that of cefotaxime, cefotaxime/tazobactam, ceftazidime, ceftazidime/tazobactam, cefepime, cefepime/tazobactam, and piperacillin/tazobactam.
# [2] = tested on: Klebsiella pneumoniae CTX-M1; conditions: CTXM1, combination at constant concentration ratio (2:1)
# Text: as §1
# [3] = tested on: Klebsiella pneumoniae CTX-M15; conditions: CTXM15, combination at constant concentration ratio (2:1)
# Text: as §1
# [4] = tested on: Enterobacter cloacae CTX-M9; conditions: CTXM9, combination at constant concentration ratio (2:1)
# Text: as §1
# [5] = tested on: Escherichia coli CTX-M15; conditions: CTXM15, combination at constant concentration ratio (2:1)
# Text: as §1
compound,measurement,setting,value
CC(C)(O/N=C(\C(=O)N[C@@H]1C(=O)N2C(C(=O)[O-])=C(C[n+]3ccccc3)CS[C@H]12)c1csc(N)n1)C(=O)O [ceftazidime],MIC,[1],8 µg/mL
same,MIC,[2],16 µg/mL
same,MIC,[3],32 µg/mL
same,MIC,[4],0.5 µg/mL
same,MIC,[5],32 µg/mL
